Assay results from patent publication US5208340A, “Process for producing an aryl-imido-peralkanoic acid by oxidizing the corresponding aryl-imido-alkanoic acid with hydrogen peroxide” (Ausimont S.p.A., priority 1990, dated 1993).

Experiment: Solubility of PAC and PAP in halogenated solvents (Table 1)
Format: physicochemical
Conditions: for solubility in the particular halogenated solvents (in words): methylene chloride and trichloromethane
Source text: The novel mechanism results in high conversion and yield under low temperature, low viscosity and internal system temperature control conditions. In addition, a very efficient product recovery can be obtained from the inorganic phase. Of course, the pressure should be such as to keep the system in the liquid phase.

Row | SMILES | Solubility (Dichloromethane, at 14° C.) | Solubility (Dichloromethane, at 25° C.) | Solubility (Trichloromethane, at 14° C.) | Solubility (Trichloromethane, at 25° C.) | solubility in the particular halogenated solvents (in words) | Solubility (Dichloromethane, at 25° C., (**) Estimated value)
1 | O=C(O)CCCCCN1C(=O)c2ccccc2C1=O [PAC, ε-phthalimidohexanoic acid] | 51.1 g per 100 cm^3 of solvent | 67.3 g per 100 cm^3 of solvent | 52.3 g per 100 cm^3 of solvent | 67.9 g per 100 cm^3 of solvent | even more soluble | –
2 | O=C(CCCCCN1C(=O)c2ccccc2C1=O)OO [PAP, ε-phthalimidoperhexanoic acid] | 26.3 g per 100 cm^3 of solvent | – | 26.1 g per 100 cm^3 of solvent | 34.9 g per 100 cm^3 of solvent | soluble | 35.2 g per 100 cm^3 of solvent
